Reference: patent publication US20240335364A1, “COMPOSITIONS OF DICAFFEOYLQUINIC ACIDS WITH TOCOPHEROL” (SYMRISE AG, priority 2021, published 2024)

What was measured:
DSC1 = test: Modulation of DSC1 gene expression of keratinocytes (real-time qPCR, RQ); assay type: cell-based, human; design: key: RQ: expression relative to DMSO vehicle control; conditions: nHEK, 24 h
Method: (§1) Neonatal human epidermal keratinocytes (nHEK) were cultivated in an EpiLife® medium (Gibco) including an HKGS kit (Gibco) with 5% CO2 at 37° C. in accordance with the supplier's instructions. The cells were treated for 24 hours, with 0.0005% of the different dicaffeoylquinic acids from above dissolved in DMSO and DMSO alone as the vehicle control. Genomic target expression levels in treated cells were measured using a quantitative Real-Time PCR comparison to vehicle control treatment.
(§2) RNA was isolated using Qiagen's RNeasy® Mini Kit. The total RNA concentrations were measured using Eppendorf's μCuvetteG 1.0 and BioPhotometer, by measuring the absorption at 260 nm. Purity control values such as E260/280 and E260/230 were calculated simultaneously. Reverse transcription was performed using the high-capacity RNA-to-cDNA kit of Applied Biosystems, in accordance with the supplier's instructions. Samples were treated in Biometra's PCR Thermocycler. For fast real-time qPCR, the cDNA was diluted with RNase-free water, and the TaqMan™ Fast Universal PCR Master Mix of Applied Biosystems was used. Quantitative real time PCR was performed using the StepOnePlus fast real-time PCR instrument by Applied Biosystems. Analysis was conducted using the StepOne software and […] (normalised to endogenous control […] expression). For upregulations, RQ values ≥2.5 are considered to be relevant.
(§3) Neonatal human epidermal keratinocytes (nHEK) were cultivated as described in Example 1 and treated for 24 hours with 0.0007% of the different monocaffeoylquinic acids. Afterwards fast real-time qPCR was performed as described in above using a customised gene array.
(§4) Neonatal human epidermal keratinocytes (nHEK) were cultivated as described in Example 1 and treated for 24 hours with 0.005% of the extract samples. Afterwards fast real-time qPCR was performed as described in above using a customized gene array.
(§5) Neonatal human epidermal keratinocytes (nHEK) were cultivated as described in Example 1 and treated for 24 hours with 4,5-dicaffeoylquinic acid (CAS number 14534-61-3, Phytolab GmbH & Co. KG) and (±)-α-tocopherol (CAS number 10191-41-0, synonym: Synonym: DL-α-Tocopherol, Vitamin E, Sigma-Aldrich, synthetic) alone and in combination. Afterwards fast real-time qPCR was performed as described in above using a customised gene array.
(§6) [formula] • With • A=RQ value by 4,5-dicaffeoylquinic acid at concentration x • B=RQ value by tocopherol at concentration y • C=RQ value by the combination of 4,5-dicaffeoylquinic acid at concentration x/2 and tocopherol at concentration y/2 • D=Factor for 4,5-dicaffeoylquinic acid=>0.5 (due to half concentration tested in the combination) • E=Factor for tocopherol=>0.5 (due to half concentration tested in the combination) • A SI=1 is obtained for additive activity of the two combined components, whereas a SI <1 proves antagonistic activity (observed efficacy is lower than additive) and SI >1 proves synergistic activity (observed efficacy is higher than additive).
(§7) Neonatal human epidermal keratinocytes (nHEK) were cultivated as described in Example 1 and treated for 24 hours with 3,4-dicaffeoylquinic acid (CAS number 57378-72-0, Phytolab GmbH & Co. KG) and (+)-α-tocopherol (CAS number 59-02-9, synonym: Synonym: D-α-tocopherol, Vitamin E, Sigma-Aldrich) alone and in combination. Afterwards fast real-time qPCR was performed as described in above using a customised gene array. For upregulations, RQ values ≥2.5 are considered to be relevant.
(§8) Neonatal human epidermal keratinocytes (nHEK) were cultivated as described above and treated for 24 hours with yarrow extract of example 3 (Achillea millefolium, freeze-dried fresh press juice of flowering aerials, cultivated in Germany) and (±)-α-tocopherol (CAS number 10191-41-0, synonym: Synonym: DL-α-Tocopherol, Vitamin E, Sigma-Aldrich, synthetic) alone and in two combinations. Afterwards fast real-time qPCR was performed as described in above using a customised gene array. […]

CRYAB = test: Modulation of CRYAB gene expression of keratinocytes (real-time qPCR, RQ); assay type: cell-based, human; design: key: relative quantity (RQ) vs DMSO vehicle-treated control; conditions: nHEK, 24 h
Method: as §1, §2, §3, §4, §5, §6
(§9) Neonatal human epidermal keratinocytes (nHEK) were cultivated as described above and treated for 24 hours with 3,5-dicaffeoylquinic acid (CAS number 2450-53-5, Phytolab GmbH & Co. KG) and D-α-tocopherol (CAS number 59-02-9, synonym: (+)-α-tocopherol, Vitamin E, trade name: Copherol® F 1300 C, BTC Europe GmbH) alone and in combination. Afterwards fast real-time qPCR was performed as described in above using a customised gene array.
as §8

OCLN = test: Modulation of OCLN gene expression of keratinocytes (real-time qPCR, RQ); assay type: cell-based, human; design: key: RQ: expression relative to DMSO vehicle control (qPCR); conditions: nHEK, 24 h
Method: as §1, §2, §3, §4, §5, §6
(§10) Neonatal human epidermal keratinocytes (nHEK) were cultivated as described above and treated for 24 hours with yarrow extract of example 3 (Achillea millefolium, freeze-dried fresh press juice of flowering aerials, cultivated in Germany) and (±)-α-tocopherol (CAS number 10191-41-0, synonym: Synonym: DL-α-Tocopherol, Vitamin E, Sigma-Aldrich, synthetic) alone and in two combinations. Afterwards fast real-time qPCR was performed as described in above using a customised gene array.

DEFB1 = test: Modulation of DEFB1 gene expression of keratinocytes (real-time qPCR, RQ); assay type: cell-based, human; design: key: RQ = expression relative to DMSO vehicle control (qPCR); conditions: nHEK, 24 h
Method: as §1, §2, §3, §5, §6, §10
as §10, with “(+)-α-tocopherol” for “(±)-α-tocopherol”, “59-02-9,” for “10191-41-0,”, “D-α-tocopherol,” for “DL-α-Tocopherol,”, “Sigma-Aldrich)” for “Sigma-Aldrich, synthetic)”, “combination.” for “two combinations.”

HSPB2 = test: Modulation of HSPB2 gene expression of keratinocytes (real-time qPCR, RQ); assay type: cell-based, human; design: key: relative quantity vs DMSO vehicle control (qPCR); conditions: nHEK, 24 h
Method: as §1, §2, §3, §5, §6, §10

DSG1 = test: Modulation of DSG1 gene expression of keratinocytes (real-time qPCR, RQ); assay type: cell-based, human; design: key: relative quantity vs DMSO vehicle control (qPCR); conditions: nHEK, 24 h
Method: as §1, §2, §3, §4, §5, §6, §7
as §9, with “array. […]” for “array.”

CLDN1 = test: Modulation of CLDN1 gene expression of keratinocytes (real-time qPCR, RQ); assay type: cell-based, human; conditions: nHEK, 24 h
Method: as §1, §2, §3, §4, §5, §6, §7, §10

HSPB8 = test: Modulation of HSPB8 gene expression of keratinocytes (real-time qPCR, RQ); assay type: cell-based, human; design: key: RQ: expression relative to DMSO vehicle control (qPCR); conditions: nHEK, 24 h
Method: as §1, §2, §3, §4, §5, §6, §10

[1] = test system: Neonatal human epidermal keratinocytes (nHEK); test: Modulation of gene expression of keratinocytes, whole gene array (statements in words); assay type: cell-based; conditions: 24 h
Method: as §1, §2, §3, §4

[2] = 0.003% tocopherol alone, Example 8
[3] = 0.005% tocopherol alone, Example 7, Table 9
[4] = 0.005% tocopherol alone, Example 7, Table 10

O=C(/C=C/c1ccc(O)c(O)c1)O[C@H]1[C@H](O)C[C@](O)(C(=O)O)C[C@H]1OC(=O)/C=C/c1ccc(O)c(O)c1 [4,5-Dicaffeoylquinic acid, 4,5-dicaffeoylquinic acid]
RQ value DSC1 (DSC1; 0.0005%, Example 1): 18.1
RQ value DSC1 (DSC1; 0.0007% alone, Example 4): 25.0
RQ value CRYAB (CRYAB; 0.0005%, Example 1): 13.8
RQ value CRYAB (CRYAB; 0.0007% alone, Example 4): 21.1
RQ value OCLN (OCLN; 0.0005%, Example 1): 2.4
RQ value OCLN (OCLN; 0.0007% alone, Example 4): 3.4
RQ value DEFB1 (DEFB1; 0.0005%, Example 1): 3.2
RQ value DEFB1 (DEFB1; 0.0007% alone, Example 4): 4.3
RQ value HSPB2 (HSPB2; 0.0005%, Example 1): 4.3
RQ value HSPB2 (HSPB2; 0.0007% alone, Example 4): 5.7
RQ value DSG1 (DSG1; 0.0005%, Example 1): 10.6
RQ value DSG1 (DSG1; 0.0007% alone, Example 4): 11.1
RQ value CLDN1 (CLDN1; 0.0005%, Example 1): 3.5
RQ value CLDN1 (CLDN1; 0.0007% alone, Example 4): 2.4
RQ value HSPB8 (HSPB8; 0.0005%, Example 1): 4.2
RQ value HSPB8 (HSPB8; 0.0007% alone, Example 4): 6.2

O=C(/C=C/c1ccc(O)c(O)c1)O[C@H]1[C@H](O)C[C@](O)(C(=O)O)C[C@H]1O [4-caffeoyl-quinic acid, 4-caffeoylquinic acid]
RQ value DSC1 (DSC1; 0.0007%, Example 2): 2.2
RQ value CRYAB (CRYAB; 0.0007%, Example 2): 1.9
RQ value OCLN (OCLN; 0.0007%, Example 2): 1.0
RQ value DEFB1 (DEFB1; 0.0007%, Example 2): 1.9
RQ value HSPB2 (HSPB2; 0.0007%, Example 2): 2.2
RQ value DSG1 (DSG1; 0.0007%, Example 2): 1.9
RQ value CLDN1 (CLDN1; 0.0007%, Example 2): 0.8
RQ value HSPB8 (HSPB8; 0.0007%, Example 2): 1.0

O=C(/C=C/c1ccc(O)c(O)c1)O[C@@H]1C[C@@](O)(C(=O)O)C[C@@H](O)[C@@H]1O [5-caffeoyl-quinic acid, 5-caffeoylquinic acid]
RQ value DSC1 (DSC1; 0.0007%, Example 2): 0.7
RQ value CRYAB (CRYAB; 0.0007%, Example 2): 0.7
RQ value OCLN (OCLN; 0.0007%, Example 2): 0.8
RQ value DEFB1 (DEFB1; 0.0007%, Example 2): 0.7
RQ value HSPB2 (HSPB2; 0.0007%, Example 2): 1.0
RQ value DSG1 (DSG1; 0.0007%, Example 2): 0.5
RQ value CLDN1 (CLDN1; 0.0007%, Example 2): 0.8
RQ value HSPB8 (HSPB8; 0.0007%, Example 2): 0.6

Cc1c(C)c2c(c(C)c1O)CC[C@@](C)(CCC[C@H](C)CCC[C@H](C)CCCC(C)C)O2 [(+)-alpha-tocopherol, (+)-α-tocopherol]
RQ value DSC1 (DSC1; 0.003% alone, Example 5): 0.6
RQ value DSC1 (DSC1; [2]): 0.6
RQ value CRYAB (CRYAB; [2]): 0.7
RQ value CRYAB (CRYAB; 0.01% alone, Example 6): 0.5
RQ value DEFB1 (DEFB1; [2]): 0.8
relevant modulation of the selected genes (RQ ≥2.5) ([1]; tocopherol alone at 0.003%): does not relevantly modulate any of the selected genes
relevant modulation of the selected genes (RQ ≥2.5) ([1]; tocopherol alone at 0.01%): does not relevantly modulate any of the selected genes
RQ value DSG1 (DSG1; 0.003% alone, Example 5): 0.4
RQ value DSG1 (DSG1; [2]): 0.4
RQ value DSG1 (DSG1; 0.01% alone, Example 6): 0.7
RQ value CLDN1 (CLDN1; 0.003% alone, Example 5): 0.4

(±)-α-tocopherol [(±)-alpha-tocopherol]
RQ value DSC1 (DSC1; 0.005% alone, Example 4): 1.1
RQ value DSC1 (DSC1; [3]): 1.3
RQ value DSC1 (DSC1; [4]): 1.9
RQ value CRYAB (CRYAB; 0.005% alone, Example 4): 1.4
RQ value CRYAB (CRYAB; [3]): 1.3
RQ value OCLN (OCLN; 0.005% alone, Example 4): 1.7
RQ value OCLN (OCLN; [3]): 2.4
RQ value DEFB1 (DEFB1; 0.005% alone, Example 4): 1.3
RQ value DEFB1 (DEFB1; [3]): 1.7
RQ value HSPB2 (HSPB2; 0.005% alone, Example 4): 1.4
relevant modulation of the selected genes (RQ ≥2.5) ([1]; tocopherol alone at 0.005%): does not relevantly modulate any of the selected genes
RQ value DSG1 (DSG1; 0.005% alone, Example 4): 1.3
RQ value DSG1 (DSG1; [3]): 1.4
RQ value DSG1 (DSG1; [4]): 2.0
RQ value CLDN1 (CLDN1; 0.005% alone, Example 4): 1.2
RQ value CLDN1 (CLDN1; [3]): 1.3
RQ value CLDN1 (CLDN1; [4]): 1.8
RQ value HSPB8 (HSPB8; 0.005% alone, Example 4): 1.0
RQ value HSPB8 (HSPB8; [3]): 1.2
RQ value HSPB8 (HSPB8; [4]): 2.3
